Source: US20210220301A1, “Pharmaceutical or Nutritional Combination Comprising Beta-Hydroxy-Betamethylbutyrate” (Abbott Laboratories, priority 2016, published 2021)

Experiments:
lean body mass = details: humans; Deutz et al., Clin Nutr. 2013; cited from earlier work
[1] = test system: rats subjected to dexamethasone-induced muscle loss; experiment: Dexamethasone-induced muscle loss in rats: soleus muscle mass after 21 days; format: in vivo, Sprague-Dawley rats; details: 200 mg/kg/day white curcumin alone, co-administered with 0.1 mg/kg/day dexamethasone i.p., day 21, FIG. 1, t-test P<0.05
Method: A study was carried out to investigate the effect of a composition comprising HMB and white curcumin (THC) in a well-established animal model for human muscle loss (β-Hydroxy-β-methylbutyrate (HMB) normalizes dexamethasone-induced autophagy-lysosomal pathway in skeletal muscle. Giron M D, Vilchez J D, Shreeram S, Salto R, Manzano M, Cabrera E, Campos N, Edens N K, Rueda R, Lopez-Pedrosa J M. PLoS One. 2015 Feb. 6; 10(2):e0117520. doi: 10.1371/journal.pone.0117520. eCollection 2015).
Experimental design—Male Sprague-Dawley rats (8-10 weeks old) (n=42) having a body weight of 270-310 g were randomly assigned to seven experimental groups (six rats per group). Groups 1-6 were administered 0.1 mg/kg/day dexamethasone (a synthetic glucocorticoid) by intraperitoneal injection for 21 days to induce muscle loss. The dexamethasone was administered at 2 mL/kg of 1.75 mg dexamethasone in 35 mL saline. Group 7 (a sham control) was administered saline without the dexamethasone.
Group 1 (a pathological control) was administered the 0.1 mg/kg/day dexamethasone alone. […]
The body weight of each rat was measured daily. On day 21 the soleus and rectus femoris muscles from each rat were collected and weighed and the lean mass of each rat was recorded. The fore limb and hind limb grip strengths were also measured. […]

Structure (SMILES) | minimum dose of HMB at which benefits (preserving lean body mass and muscle strength) occur (lean body mass) | soleus muscle mass relative to the pathological control [1]
CC(C)(O)CC(=O)O [HMB, 3-hydroxy-3-methylbutanoic acid] | 50 mg/kg/day | –
COc1cc(CCC(=O)CC(=O)CCc2ccc(O)c(OC)c2)ccc1O [white curcumin, 1,7-bis(4-hydroxy-3-methoxyphenyl)heptane-3,5-dione] | – | did not have a significant effect
